From patent US11453703B2, “Heterotandem bicyclic peptide complexes” (BicycleTX Limited, priority 2018, dated 2022)

Experiments:
[1] = biological target: T1, human Nectin-4 protein (Homo sapiens, UniProt Q96NY8); assay: Nectin-4 Biacore (SPR) binding assay; conditions: biotinylated human Nectin-4, 25° C.
T1 construct: Human Nectin-4 (residues Gly32-Ser349); host or cells: Sf21 insect cells (baculovirus, pFastbac-1)
T1 sequence (Q96NY8 32-349): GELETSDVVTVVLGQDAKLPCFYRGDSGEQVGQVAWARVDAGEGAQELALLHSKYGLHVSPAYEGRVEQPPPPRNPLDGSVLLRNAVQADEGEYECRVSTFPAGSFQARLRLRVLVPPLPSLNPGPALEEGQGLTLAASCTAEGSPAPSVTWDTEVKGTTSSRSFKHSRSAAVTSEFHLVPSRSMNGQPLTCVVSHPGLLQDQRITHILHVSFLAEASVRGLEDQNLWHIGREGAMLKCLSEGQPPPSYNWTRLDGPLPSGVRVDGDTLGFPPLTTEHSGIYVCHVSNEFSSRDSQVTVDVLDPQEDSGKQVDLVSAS
Description: Biacore experiments were performed to determine ka (M^−1s^−1), kd (s^−1), KD (nM) values of heterotandem peptides binding to human Nectin-4 protein (obtained from Charles River). Human Nectin-4 (residues Gly32-Ser349; NCBI RefSeq: NP_112178.2) with a gp67 signal sequence and C-terminal FLAG tag was cloned into pFastbac-1 and baculovirus made using standard Bac-to-Bac™ protocols (Life Technologies). Sf21 cells at 1×10^6 ml^−1 in Excell-420 medium (Sigma) at 27° C. were infected at an MOI of 2 with a P1 virus stock and the supernatant harvested at 72 hours. The supernatant was batch bound for 1 hour at 4° C. with Anti-FLAG M2 affinity agarose resin (Sigma) washed in PBS and the resin subsequently transferred to a column and washed extensively with PBS. The protein was eluted with 100 μg/ml FLAG peptide. The eluted protein was concentrated to 2 ml and loaded onto an S-200 Superdex column (GE Healthcare) in PBS at 1 ml/min. 2 ml fractions were collected and the fractions containing Nectin-4 protein were concentrated to 16 mg/ml.
The protein was extensively desalted to remove uncoupled biotin using spin columns into PBS.
For analysis of peptide binding, a Biacore 3000 instrument was used with a CM5 chip (GE Healthcare). Streptavidin was immobilized on the chip using standard amine-coupling chemistry at 25° C. with HBS-N (10 mM HEPES, 0.15 M NaCl, pH 7.4) as the running buffer. Briefly, the carboxymethyl dextran surface was activated with a 7 minute injection of a 1:1 ratio of 0.4 M 1-ethyl-3-(3-dimethylaminopropyl) carbodiimide hydrochloride (EDC)/0.1 M N-hydroxy succinimide (NHS) at a flow rate of 10 μl/min. For capture of streptavidin, the protein was diluted to 0.2 mg/ml in 10 mM sodium acetate (pH 4.5) and captured by injecting 120 μl of streptavidin onto the activated chip surface. Residual activated groups were blocked with a 7 minute injection of 1 M ethanolamine (pH 8.5) and biotinylated Nectin-4 captured to a level of 1,200-1,800 RU. Buffer was changed to PBS/0.05% Tween 20 and a dilution series of the peptides was prepared in this buffer with a final DMSO concentration of 0.5%. The top peptide concentration was 100 nM with 6 further 2-fold dilutions. The SPR analysis was run at 25° C. at a flow rate of 50 μl/min with 60 seconds association and dissociation between 400 and 1,200 seconds depending upon the individual peptide. Data were corrected for DMSO excluded volume effects. All data were double-referenced for blank injections and reference surface using standard processing procedures and data processing and kinetic fitting were performed using Scrubber software, version 2.0c (BioLogic Software). Data were fitted using simple 1:1 binding model allowing for mass transport effects where appropriate.

[2] = system: human PBMC co-cultured with 4T1-D02 (Nectin4+); assay: Human PBMC-4T1 co-culture (cytokine release) assay; type: cell-based; conditions: anti-CD3 stimulated PBMC, 48 hours
Procedure, shortened: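 Healthy-donor human PBMCs co-cultured 5:1 with murine Nectin-4-overexpressing 4T1-D02 cells, stimulated with 125 ng/ml soluble anti-CD3 (OKT3) plus test compounds. IL-2 and IFNγ in 48 h supernatants measured by HTRF and interpolated from standard curves; three donors, each in duplicate.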

[3] = biological target: T2, CD137 (Homo sapiens, UniProt Q07011); assay: CD137 reporter assay, co-culture with Nectin-4 tumour cells; type: cell-based; design: host or cells: Jurkat reporter cells; conditions: for Fold Induction over Background: tumour target Nectin4, co-culture with H1376, 6 h;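 as to all read-outs here: jurkat reporter cells co-cultured with tumour cells and test article for 6 h, luminescence signal relative to Jurkat plus tumour cells lacking test article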
T2 sequence (Q07011 24-255): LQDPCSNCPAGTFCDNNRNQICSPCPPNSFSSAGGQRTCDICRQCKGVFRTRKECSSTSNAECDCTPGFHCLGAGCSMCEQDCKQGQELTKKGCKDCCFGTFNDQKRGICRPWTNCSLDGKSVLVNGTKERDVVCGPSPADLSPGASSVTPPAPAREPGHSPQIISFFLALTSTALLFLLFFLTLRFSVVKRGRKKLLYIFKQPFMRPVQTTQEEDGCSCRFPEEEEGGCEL
Description: Culture medium referred to as R1 media is prepared by adding 1% FBS to RPMI-1640 (component of Promega kit CS196005). Serial dilutions of test articles in R1 are prepared in a sterile 96 well-plate. Use 25 μl per well of test articles or R1 (as a background control) to designated wells in white cell culture plate. Tumour cells* are harvested and resuspended at a concentration of 400,000 cells/mL in R1 media. Twenty five (25) μL/well tumour cells are used in white cell culture plate. Jurkat cells (Promega kit CS196005, 0.5 mL) are thawed in the water bath and then added to 5 ml pre-warmed R1 medium. Twenty five (25) μL/well Jurkat cells are used in white cell culture plate. Incubate the cells and test articles for 6h at 37° C., 5% CO2. At the end of 6 h, add 75 μl/well Bio-Glo™ (Promega) and incubate for 10 min before reading luminescence in a plate reader (Clariostar, BMG). The fold change relative to cells (Jurkat cells+Cell line used in co-culture) is calculated and plotted in GraphPad Prism as log(agonist) vs response to determine EC50 (nM) and Fold Induction over background (Max)

[4] = biological target: T2, CD137; assay: CD137 Biacore (SPR) binding assay; design: purchased R&D systems; conditions: biotinylated human CD137, 25° C.
Procedure, shortened: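 Biotinylated human CD137 captured (270-1500 RU) on streptavidin-coupled dextran chip; peptides up to 500 nM in PBS/0.05% Tween 20, 0.5% DMSO, at 25°C, 60 s association, 900 s dissociation. Double-referenced data fitted to 1:1 binding model, with mass transport where appropriate.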

CCCC[C@@H]1NC(=O)[C@H](Cc2ccc(O)cc2)NC(=O)[C@@H]2CCCN2C(=O)[C@H](CC(=O)O)NC(=O)[C@H](C)NC(=O)[C@H](Cc2ccccc2)NC(=O)[C@@H]2CSCCC(=O)N3CN(CN(C3)C(=O)CCSC[C@@H](C(=O)N[C@@H](CNC(=O)CCOCCOCCOCCOCCOCCOCCOCCOCCOCCOCCOCCOCCn3cc(CCC(=O)NCCC(=O)N(C)CC(=O)N(C)CC(=O)N(C)CC(=O)N(C)CC(=O)N(C)CC(=O)N(C)CC(=O)N(C)CC(=O)N(C)CC(=O)N(C)CC(=O)N(C)CC(=O)N[C@H]4CSCCC(=O)N5CN6CN(C5)C(=O)CCSC[C@H](NC(=O)[C@@H](CC(=O)O)NC(=O)[C@H](Cc5cccc7ccccc57)NC(=O)[C@@H]5CCCN5C4=O)C(=O)N[C@@H](CCSC)C(=O)N[C@@H](CCCCNC(=N)N)C(=O)N[C@@H](CC(=O)O)C(=O)N[C@H](Cc4c[nH]c5ccccc45)C(=O)N[C@@H](CO)C(=O)N[C@@H]([C@@H](C)O)C(=O)N4CCC[C@H]4C(=O)N4C[C@H](O)C[C@H]4C(=O)N[C@H](Cc4c[nH]c5ccccc45)C(=O)N[C@H](C(N)=O)CSCCC6=O)nn3)C(N)=O)NC1=O)C(=O)CCSC[C@H](NC(=O)[C@H](C)NC(C)=O)C(=O)N[C@@H]([C@@H](C)CC)C(=O)N[C@@H](CCC(=O)O)C(=O)N[C@@H](CCC(=O)O)C(=O)NCC(=O)N[C@@H](CCC(N)=O)C(=O)N[C@@H](Cc1ccc(O)cc1)C(=O)N2 [BCY9350]
Kd [1]: > 200 nM
max IFN-y [2]: No Activity up to 1 μM
fold induction at 0.1 µM ([3]; read-out: Fold Induction over Background at 100 nM): < 2

CCCC[C@@H]1NC(=O)[C@H](Cc2ccc(O)cc2)NC(=O)[C@@H]2CCCN2C(=O)[C@H](CC(=O)O)NC(=O)[C@H](C)NC(=O)[C@H](Cc2ccccc2)NC(=O)[C@@H]2CSCCC(=O)N3CN(CN(C3)C(=O)CCSC[C@@H](C(=O)N[C@@H](CNC(=O)CCc3cn(CCCNC(=O)CN(C)C(=O)CN(C)C(=O)CN(C)C(=O)CN(C)C(=O)CN(C)C(=O)COCCOCCOCCOCCOCCNC(=O)N[C@H]4CSCCC(=O)N5CN6CN(C5)C(=O)CCSC[C@H](NC(=O)[C@@H](CC(=O)O)NC(=O)[C@H](Cc5cccc7ccccc57)NC(=O)[C@@H]5CCCN5C4=O)C(=O)N[C@@H](CCSC)C(=O)N[C@@H](CCCCNC(=N)N)C(=O)N[C@@H](CC(=O)O)C(=O)N[C@@H](Cc4c[nH]c5ccccc45)C(=O)N[C@@H](CO)C(=O)N[C@@H]([C@@H](C)O)C(=O)N4CCC[C@H]4C(=O)N4C[C@H](O)C[C@H]4C(=O)N[C@@H](Cc4c[nH]c5ccccc45)C(=O)N[C@H](C(N)=O)CSCCC6=O)nn3)C(N)=O)NC1=O)C(=O)CCSC[C@H](NC(=O)[C@H](C)NC(C)=O)C(=O)N[C@@H]([C@@H](C)CC)C(=O)N[C@@H](CCC(=O)O)C(=O)N[C@@H](CCC(=O)O)C(=O)NCC(=O)N[C@@H](CCC(N)=O)C(=O)N[C@@H](Cc1ccc(O)cc1)C(=O)N2 [BCY9410]
Kd [1]: 1.49 nM
Kd [4]: 65.8 nM
EC50 [3]: 1.3 nM
Fold Induction over Background [3]: 24 fold

CCCC[C@@H]1NC(=O)[C@H](Cc2ccc(O)cc2)NC(=O)[C@@H]2CCCN2C(=O)[C@H](CC(=O)O)NC(=O)[C@H](C)NC(=O)[C@H](Cc2ccccc2)NC(=O)[C@@H]2CSCCC(=O)N3CN(CN(C3)C(=O)CCSC[C@@H](C(=O)N[C@@H](CNC(=O)CCc3cn(CCOCCOCCOCCOCCOCCNC(=O)N[C@H]4CSCCC(=O)N5CN6CN(C5)C(=O)CCSC[C@H](NC(=O)[C@@H](CC(=O)O)NC(=O)[C@H](Cc5cccc7ccccc57)NC(=O)[C@@H]5CCCN5C4=O)C(=O)N[C@@H](CCSC)C(=O)N[C@@H](CCCCNC(=N)N)C(=O)N[C@@H](CC(=O)O)C(=O)N[C@@H](Cc4c[nH]c5ccccc45)C(=O)N[C@@H](CO)C(=O)N[C@@H]([C@@H](C)O)C(=O)N4CCC[C@H]4C(=O)N4C[C@H](O)C[C@H]4C(=O)N[C@@H](Cc4c[nH]c5ccccc45)C(=O)N[C@H](C(N)=O)CSCCC6=O)nn3)C(N)=O)NC1=O)C(=O)CCSC[C@H](NC(=O)[C@H](C)NC(C)=O)C(=O)N[C@@H]([C@@H](C)CC)C(=O)N[C@@H](CCC(=O)O)C(=O)N[C@@H](CCC(=O)O)C(=O)NCC(=O)N[C@@H](CCC(N)=O)C(=O)N[C@@H](Cc1ccc(O)cc1)C(=O)N2 [BCY9411]
Kd [1]: 1.48 nM
Kd [4]: 71.1 nM
EC50 [3]: 14 nM
Fold Induction over Background [3]: 41 fold
